Source: ChEMBL document CHEMBL1145174, “Potent 4-aryl- or 4-arylalkyl-substituted 3-isoxazolol GABA(A) antagonists: synthesis, pharmacology, and molecular modeling” (J Med Chem, 2005)

Key:
[1] = tested on: GABA-A receptor (Mus musculus); assay: cells
[2] = target: GABA-A receptor; anion channel; assay: Displacement of [3H]muscimol from rat brain gamma-aminobutyric-acid GABA-A receptor

| IC50 [1] [nM] | Ki [2] [nM] | SMILES |
| --- | --- | --- |
| 370 |  | Oc1noc(C2CCNCC2)c1Cc1ccc2ccccc2c1 |
| 113 | 16 | Oc1noc(C2CCNCC2)c1Cc1ccc2ccccc2c1Cl |
| 384 | 109 | Oc1noc(C2CCNCC2)c1Cc1ccc2ccc(Br)cc2c1 |
| 42 | 10 | Oc1noc(C2CCNCC2)c1Cc1ccc2ccccc2c1Br |
| 61 | 28 | CSc1c(Cc2c(O)noc2C2CCNCC2)ccc2ccccc12 |
| 198 | 21 | Oc1noc(C2CCNCC2)c1Cc1ccc2ccccc2c1-c1ccccc1 |
| 126 | 250 | Oc1noc(C2CCNCC2)c1Cc1ccc2ccccc2c1Sc1ccccc1 |
| 159 | 220 | Oc1noc(C2CCNCC2)c1-c1ccccc1 |
| 215 | 80 | Oc1noc(C2CCNCC2)c1Cc1ccc2c(Br)cccc2c1 |
| 226 | 45 | Oc1noc(C2CCNCC2)c1Cc1ccc2cccc(Br)c2c1 |
| 334 | 820 | O=c1[nH]oc(C2CCNCC2)c1-c1cccc2ccccc12 |
| 140 | 28 | N#Cc1c(Cc2c(O)noc2C2CCNCC2)ccc2ccccc12 |
| 242 | 19 | Oc1noc(C2CCNCC2)c1Cc1ccc2ccccc2c1F |
| 141 | 36 | Oc1noc(C2CCNCC2)c1-c1ccc2ccccc2c1 |
